These are literature values, as cited in patent US20250319024A1, “TARGETED NANOPARTICLES AND THEIR USES RELATED TO INFECTIOUS DISEASE” (priority 2021, published 2025).

Read-outs that look alike come from different tables or passages of the source.

The data set concerns RIF sensitive strains / resistant strains. The conditions noted are these: cited from earlier work.

For the compound `CO[C@H]1/C=C/O[C@@]2(C)Oc3c(C)c(O)c4c(O)c(c(/C=N/N5CCN(C)CC5)c(O)c4c3C2=O)NC(=O)/C(C)=C\C=C\[C@H](C)[C@H](O)[C@@H](C)[C@@H](O)[C@@H](C)[C@H](OC(C)=O)[C@@H]1C` [free RIF, rifampin], the ED95 result is “below 0.5 μg/mL” (RIF sensitive strains) and “above 2 μg/mL” (resistant strains).
